{
  "source": "patent US7981903B2",
  "about": "“2-[2-{phenylamino}-1H-pyrrolo[2,3-D]pyrimidin-4-yl)amino] benzamide derivatives as IGF-1R inhibitors for the treatment of cancer” (GlaxoSmithKline LLC, priority 2007, dated 2011)",
  "data": [
    {"molecular_target": "T1, human IGF1R (hIGF1R) (Homo sapiens, UniProt P08069)", "T1 construct": "containing amino acid residues 957-1367 of human IGF1R; made in house; host or cells: Sf9 cells (baculovirus)", "T1 sequence (P08069 957-1367)": "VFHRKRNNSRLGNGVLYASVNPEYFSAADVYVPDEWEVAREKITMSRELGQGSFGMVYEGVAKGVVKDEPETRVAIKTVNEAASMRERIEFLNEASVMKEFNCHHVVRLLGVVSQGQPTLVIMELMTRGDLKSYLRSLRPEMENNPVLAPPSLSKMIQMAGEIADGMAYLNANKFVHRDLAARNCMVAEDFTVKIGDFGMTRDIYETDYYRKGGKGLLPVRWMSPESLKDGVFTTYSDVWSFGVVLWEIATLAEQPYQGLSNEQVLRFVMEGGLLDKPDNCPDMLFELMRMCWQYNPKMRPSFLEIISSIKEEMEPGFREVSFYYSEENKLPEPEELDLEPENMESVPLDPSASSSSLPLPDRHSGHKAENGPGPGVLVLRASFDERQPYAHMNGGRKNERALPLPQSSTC", "test": "TR-FRET kinase assay of purified hIGF1R", "assay_type": "biochemical", "settings": "activated hIGF1R 0.5 nM, 10 μM ATP, values given as pIC50 category, read-out: IGF-1R pIC50 (converted)", "units": {"IC50": "nM"}, "values": [
      {"compound": "COc1cc(N2CCN(C(C)C)CC2)ccc1Nc1nc(Nc2cc(F)cc(OC)c2C(N)=O)c2cc[nH]c2n1", "note": "[Example 88]", "IC50": "1.26 to 3.98"},
      {"compound": "COc1cc(N2CCOC[C@@H]2C)ccc1Nc1nc(Nc2ccc(F)cc2C(N)=O)c2cc[nH]c2n1", "note": "[Example 61, 5-fluoro-2-[(2-{[4-[(3S)-3-methyl-4-morpholinyl]-2-(methyloxy)phenyl]amino}-1H-pyrrolo[2,3-d]pyrimidin-4-yl)amino]benzamide]", "IC50": "1.26 to 3.98"},
      {"compound": "CNC(=O)c1c(F)cc(Cl)cc1Nc1nc(Nc2cc3c(cc2OC)CCCN3C(=O)CN2CCCC2)nc2[nH]ccc12", "note": "[Example 174, 4-chloro-2-fluoro-N-methyl-6-[(2-{[6-(methyloxy)-1-(1-pyrrolidinylacetyl)-1,2,3,4-tetrahydro-7-quinolinyl]amino}-1H-pyrrolo[2,3-d]pyrimidin-4-yl)amino]benzamide]", "IC50": "1.26 to 3.98"},
      {"compound": "COc1ccc(N2CCN(C)CC2)cc1Nc1nc(Nc2ccccc2C(N)=O)c2cc[nH]c2n1", "note": "[Example 9, 2-[(2-{[2-(methyloxy)-5-(4-methyl-1-piperazinyl)phenyl]amino}-1H-pyrrolo[2,3-d]pyrimidin-4-yl)amino]benzamide]", "IC50": "1.26 to 3.98"},
      {"compound": "CCCN1CCC(c2ccc(Nc3nc(Nc4cc(F)c(F)cc4C(N)=O)c4cc[nH]c4n3)c(OC)c2)CC1", "note": "[Example 98, 4,5-difluoro-2-[(2-{[2-(methyloxy)-4-(1-propyl-4-piperidinyl)phenyl]amino}-1H-pyrrolo[2,3-d]pyrimidin-4-yl)amino]benzamide]", "IC50": "0.251 to 1"},
      {"compound": "COc1cc(N2CCOCC2)ccc1Nc1nc(Nc2cc(F)ccc2C(N)=O)c2cc[nH]c2n1", "note": "[Example 83, 4-fluoro-2-[(2-{[2-(methyloxy)-4-(4-morpholinyl)phenyl]amino}-1H-pyrrolo[2,3-d]pyrimidin-4-yl)amino]benzamide]", "IC50": "1.26 to 3.98"},
      {"compound": "COc1cc(N2CCN(C(C)C)CC2)ccc1Nc1nc(Nc2cccc3c2C(=O)NC3)c2cc[nH]c2n1", "note": "[Example 199, 7-[(2-{[4-[4-(1-methylethyl)-1-piperazinyl]-2-(methyloxy)phenyl]amino}-1H-pyrrolo[2,3-d]pyrimidin-4-yl)amino]-2,3-dihydro-1H-isoindol-1-one]", "IC50": "1.26 to 3.98"},
      {"compound": "COc1cc(N2CCC(N3CC[C@H](F)C3)CC2)ccc1Nc1nc(Nc2cccc(F)c2C(N)=O)c2cc[nH]c2n1", "note": "[Example 43, 2-fluoro-6-[(2-{[4-{4-[(3S)-3-fluoro-1-pyrrolidinyl]-1-piperidinyl}-2-(methyloxy)phenyl]amino}-1H-pyrrolo[2,3-d]pyrimidin-4-yl)amino]benzamide]", "IC50": "1.26 to 3.98"},
      {"compound": "CNC(=O)c1c(Nc2nc(Nc3cc4c(cc3OC)CCCN4C(=O)CN(C)C)nc3[nH]ccc23)ccc(F)c1F", "note": "[Example 163, 6-[(2-{[1-(N,N-dimethylglycyl)-6-(methyloxy)-1,2,3,4-tetrahydro-7-quinolinyl]amino}-1H-pyrrolo[2,3-d]pyrimidin-4-yl)amino]-2,3-difluoro-N-methylbenzamide]", "IC50": "1.26 to 3.98"},
      {"compound": "COc1cc(C2CCN(C(C)C)CC2)ccc1Nc1nc(Nc2cc(F)c(F)cc2C(N)=O)c2cc[nH]c2n1", "note": "[Example 97, 4,5-difluoro-2-[(2-{[4-[1-(1-methylethyl)-4-piperidinyl]-2-(methyloxy)phenyl]amino}-1H-pyrrolo[2,3-d]pyrimidin-4-yl)amino]benzamide]", "IC50": "0.251 to 1"},
      {"compound": "COc1cc(N2CCCN(C)CC2)ccc1Nc1nc(Nc2cccc(F)c2C(N)=O)c2cc[nH]c2n1", "note": "[Example 209, 2-fluoro-6-[(2-{[4-(4-methylhexahydro-1H-1,4-diazepin-1-yl)-2-(methyloxy)phenyl]amino}-1H-pyrrolo[2,3-d]pyrimidin-4-yl)amino]benzamide]", "IC50": "1.26 to 3.98"},
      {"compound": "CCCN1CCC=C(c2ccc(Nc3nc(Nc4cc(F)ccc4C(N)=O)c4cc[nH]c4n3)c(OC)c2)C1", "note": "[Example 70, 4-fluoro-2-[(2-{[2-(methyloxy)-4-(1-propyl-1,2,5,6-tetrahydro-3-pyridinyl)phenyl]amino}-1H-pyrrolo[2,3-d]pyrimidin-4-yl)amino]benzamide]", "IC50": "0.251 to 1"},
      {"compound": "CCCN(C)CC(=O)N1CCc2cc(OC)c(Nc3nc(Nc4cccc(F)c4C(=O)NC)c4cc[nH]c4n3)cc21", "note": "[Example 167, 2-fluoro-N-methyl-6-[(2-{[5-(methyloxy)-1-(N-methyl-N-propylglycyl)-2,3-dihydro-1H-indol-6-yl]amino}-1H-pyrrolo[2,3-d]pyrimidin-4-yl)amino]benzamide]", "IC50": "1.26 to 3.98"},
      {"compound": "COc1cc2c(cc1Nc1nc(Nc3cccc(F)c3C(=O)NC(C)C)c3cc[nH]c3n1)N(C(=O)CN(C)C)CC2", "note": "[Example 158, 2-[(2-{[1-(N,N-dimethylglycyl)-5-(methyloxy)-2,3-dihydro-1H-indol-6-yl]amino}-1H-pyrrolo[2,3-d]pyrimidin-4-yl)amino]-6-fluoro-N-(1-methylethyl)benzamide]", "IC50": "1.26 to 3.98"},
      {"compound": "COc1cc2c(cc1Nc1nc(Nc3cc(F)cc(F)c3C(=O)NC(C)C)c3cc[nH]c3n1)N(C(=O)CN(C)C)CC2", "note": "[Example 153, 2-[(2-{[1-(N,N-dimethylglycyl)-5-(methyloxy)-2,3-dihydro-1H-indol-6-yl]amino}-1H-pyrrolo[2,3-d]pyrimidin-4-yl)amino]-4,6-difluoro-N-(1-methylethyl)benzamide]", "IC50": "1.26 to 3.98"},
      {"compound": "COc1cc2c(cc1Nc1nc(Nc3cccc(F)c3C(N)=O)c3cc[nH]c3n1)N(C(=O)CN1CCCC1)CC2", "note": "[Example 138, 2-fluoro-6-[(2-{[5-(methyloxy)-1-(1-pyrrolidinylacetyl)-2,3-dihydro-1H-indol-6-yl]amino}-1H-pyrrolo[2,3-d]pyrimidin-4-yl)amino]benzamide]", "IC50": "1.26 to 3.98"},
      {"compound": "COc1cc(N2CCC(N3CCN(CCF)CC3)CC2)ccc1Nc1nc(Nc2cccc(F)c2C(N)=O)c2cc[nH]c2n1", "note": "[Example 114, 2-fluoro-6-[(2-{[4-{4-[4-(2-fluoroethyl)-1-piperazinyl]-1-piperidinyl}-2-(methyloxy)phenyl]amino}-1H-pyrrolo[2,3-d]pyrimidin-4-yl)amino]benzamide]", "IC50": "1.26 to 3.98"},
      {"compound": "COc1cc(N2CCN(CCS(C)(=O)=O)CC2)c(C)cc1Nc1nc(Nc2cccc(F)c2C(N)=O)c2cc[nH]c2n1", "note": "[Example 52, 2-fluoro-6-({2-[(5-methyl-2-(methyloxy)-4-{4-[2-(methylsulfonyl)ethyl]-1-piperazinyl}phenyl)amino]-1H-pyrrolo[2,3-d]pyrimidin-4-yl}amino)benzamide]", "IC50": "1.26 to 3.98"},
      {"compound": "COc1cc(N2CCC(N3CCOCC3)CC2)ccc1Nc1nc(Nc2cc(F)c(F)cc2C(N)=O)c2cc[nH]c2n1", "note": "[Example 101, 4,5-difluoro-2-{[2-({2-(methyloxy)-4-[4-(4-morpholinyl)-1-piperidinyl]phenyl}amino)-1H-pyrrolo[2,3-d]pyrimidin-4-yl]amino}benzamide]", "IC50": "0.251 to 1"},
      {"compound": "COc1cc(N2CCN(CC3CC3)CC2)ccc1Nc1nc(Nc2cc(F)ccc2C(N)=O)c2cc[nH]c2n1", "note": "[Example 81, 2-[(2-{[4-[4-(cyclopropylmethyl)-1-piperazinyl]-2-(methyloxy)phenyl]amino}-1H-pyrrolo[2,3-d]pyrimidin-4-yl)amino]-4-fluorobenzamide]", "IC50": "1.26 to 3.98"},
      {"compound": "COc1cc2c(cc1Nc1nc(Nc3cc(F)cc(F)c3C(=O)NCc3ccc(F)cc3)c3cc[nH]c3n1)N(C(=O)CN(C)C)CC2", "note": "[Example 155, 2-[(2-{[1-(N,N-dimethylglycyl)-5-(methyloxy)-2,3-dihydro-1H-indol-6-yl]amino}-1H-pyrrolo[2,3-d]pyrimidin-4-yl)amino]-4,6-difluoro-N-[(4-fluorophenyl)methyl]benzamide]", "IC50": "1.26 to 3.98"},
      {"compound": "CCCN1CCCC(c2ccc(Nc3nc(Nc4cc(F)ccc4C(N)=O)c4cc[nH]c4n3)c(OC)c2)C1", "note": "(stereo not shown) [Example 71, 4-fluoro-2-[(2-{[2-(methyloxy)-4-(1-propyl-3-piperidinyl)phenyl]amino}-1H-pyrrolo[2,3-d]pyrimidin-4-yl)amino]benzamide]", "IC50": "0.251 to 1"},
      {"compound": "CCN(CCO)CC(=O)N1CCc2cc(OC)c(Nc3nc(Nc4cccc(F)c4C(N)=O)c4cc[nH]c4n3)cc21", "note": "[Example 177, 2-[(2-{[1-[N-ethyl-N-(2-hydroxyethyl)glycyl]-5-(methyloxy)-2,3-dihydro-1H-indol-6-yl]amino}-1H-pyrrolo[2,3-d]pyrimidin-4-yl)amino]-6-fluorobenzamide]", "IC50": "1.26 to 3.98"},
      {"compound": "COc1cc(C2=CCN(C(C)C)CC2)ccc1Nc1nc(Nc2cc(F)ccc2C(N)=O)c2cc[nH]c2n1", "note": "[Example 72, 4-fluoro-2-[(2-{[4-[1-(1-methylethyl)-1,2,3,6-tetrahydro-4-pyridinyl]-2-(methyloxy)phenyl]amino}-1H-pyrrolo[2,3-d]pyrimidin-4-yl)amino]benzamide]", "IC50": "0.251 to 1"},
      {"compound": "COc1cc(N2CCOC[C@@H]2C)ccc1Nc1nc(Nc2cc(F)c(F)cc2C(N)=O)c2cc[nH]c2n1", "note": "[Example 105, 4,5-difluoro-2-[(2-{[4-[(3S)-3-methyl-4-morpholinyl]-2-(methyloxy)phenyl]amino}-1H-pyrrolo[2,3-d]pyrimidin-4-yl)amino]benzamide]", "IC50": "0.251 to 1"},
      {"compound": "CNC(=O)c1c(F)cccc1Nc1nc(Nc2cc3c(cc2OC)N(C(=O)CN(C)C)CC3)nc2[nH]ccc12", "note": "[Example 198, 2-[(2-{[1-(N,N-dimethylglycyl)-6-(methyloxy)-2,3-dihydro-1H-indol-5-yl]amino}-1H-pyrrolo[2,3-d]pyrimidin-4-yl)amino]-6-fluoro-N-methylbenzamide]", "IC50": "1.26 to 3.98"},
      {"compound": "COc1cc(N2CCC(N3CC[C@@H](F)C3)CC2)ccc1Nc1nc(Nc2cccc(F)c2C(N)=O)c2cc[nH]c2n1", "note": "[Example 44, 2-fluoro-6-[(2-{[4-{4-[(3R)-3-fluoro-1-pyrrolidinyl]-1-piperidinyl}-2-(methyloxy)phenyl]amino}-1H-pyrrolo[2,3-d]pyrimidin-4-yl)amino]benzamide]", "IC50": "1.26 to 3.98"},
      {"compound": "COc1cc(N2CCC(N3CC[C@@H](F)C3)CC2)ccc1Nc1nc(Nc2cc(F)ccc2C(N)=O)c2cc[nH]c2n1", "note": "[Example 76, 4-fluoro-2-[(2-{[4-{4-[(3R)-3-fluoro-1-pyrrolidinyl]-1-piperidinyl}-2-(methyloxy)phenyl]amino}-1H-pyrrolo[2,3-d]pyrimidin-4-yl)amino]benzamide]", "IC50": "0.251 to 1"}
    ]}
  ]
}
